Laboratory results reported in patent publication US5025016A, “Pyrimidine-thioalkyl pyridine derivatives, medicaments containing these compounds, and method of treatment” (Ludwig Heumann & Co. GmbH, priority 1983, dated 1991).
Where a name gives a salt, the structure may show the parent alone.

Test system: tracheal secretion of phenol red
Assay: Secretion-stimulating activity: tracheal secretion of phenol red after oral administration to female mice
Assay type: in vivo
Details: Mus musculus, calculated from the regression curves
Procedure: Bronchosecretolytic compounds promote the tracheal secretion of phenol red (Chronic Bronchitis Research Group, Chinese Medical Journal 3: 259, 1977). The increase in the tracheal secretion of phenol red is a measure of bronchosecretolytic activity. This activity of the test substances was investigated after oral administration to female mice. The ED50 -values shown in Table 1 were calculated from the regression curves.

Going from `Nc1c(Br)cc(Br)cc1CN[C@H]1CC[C@H](O)CC1` [Ambroxol, trans-4-(2-amino-3,5-dibromobenzyl)-aminocyclohexanol, reference compound] to `Nc1cc(O)nc(SCc2ccc(Cl)nc2)n1` [Example 6, 4-amino-6-hydroxy-2-(pyridyl-6-chloro-3-methylthio)-pyrimidine], the ED50 falls from 250 mg/kg to 2 mg/kg (120-fold).

Going from `Nc1ccnc(SCc2cccnc2)n1` [Example 1, 4-amino-2-(pyridyl-3-methylthio)-pyrimidine] to `Oc1ccnc(SCc2cccnc2)n1` [Example 2, 4-hydroxy-2-(pyridyl-3-methylthio)-pyrimidine], the ED50 rises from 5 mg/kg to 100 mg/kg (20-fold).

Compared with `Nc1cc(O)nc(SCc2cccnc2)n1` [Example 3, 4-amino-6-hydroxy-2-(pyridyl-3-methylthio)-pyrimidine], `Nc1cc(N)nc(SCc2cccnc2)n1` [Example 4, 4,6-diamino-2-(pyridyl-3-methylthio)-pyrimidine succinate] is higher in ED50: 2 mg/kg for the first, > 100 mg/kg for the second.

First: Cc1cc(O)nc(SCc2cccnc2)n1 [Example 5, 4-hydroxy-6-methyl-2-(pyridyl-3-methylthio)-pyrimidine]
Second: Cc1ccnc([S+]([O-])Cc2cccnc2)n1 (stereo not shown) [Example 11, 4-methyl-2-(pyridyl-3-methylsulfinyl)-pyrimidine oxalate]
The ED50 of the first is 1.5-fold higher: 15 mg/kg for the first, 10 mg/kg for the second.

Going from `CC(Sc1ncccn1)c1cccnc1` (stereo not shown) [Example 7, 2-(pyridyl-3-(2-ethylthio)-pyrimidine oxalate] to `Cc1ccc(C(C)Sc2ncccn2)cn1` (stereo not shown) [Example 8], the ED50 rises from 15 mg/kg to > 100 mg/kg.

First: [O-][S+](Cc1cccnc1)c1ncccn1 (stereo not shown) [Example 9, 2-(pyridyl-3-methylsulfinyl)-pyrimidine hydrochloride]
Second: [O-][S+](Cc1ccncc1)c1ncccn1 (stereo not shown) [Example 10, 2-(pyridyl-4-methylsulfinyl)-pyrimidine hydrochloride]
The ED50 of the first is 50-fold lower: 2 mg/kg for the first, 100 mg/kg for the second.

Going from `C[n+]1cccc(CSc2ncccn2)c1` [Example 12, 2-(3-methylthio-1-methylpyridinium)-pyrimidine iodide] to `CC[n+]1cccc(CSc2ncccn2)c1` [Example 13, 2-(3-methylthio-1-ethylpyridinium)-pyrimidine iodide], the ED50 rises from 1 mg/kg to 70 mg/kg (70-fold).

Test system: carrageenin-induced inflammation (oedema formation)
Assay: Antiphlogistic activity: carrageenin-oedema test, right-hand rear paw
Assay type: in vivo
Details: 100 mg/kg i.g., 30 minutes before injection of the carrageenin; male rats
Procedure: The antiphlogistic properties of the compounds according to the invention were determined by the carrageenin-oedema test in male rats (average weight 130-160 g, SIV 50, Messrs Ivanovas, Kisslegg). The inhibition of the carrageenin-induced inflammation (oedema formation) was measured on the right-hand rear paw. The test substances were administered intragastrally by esophagus probe 30 minutes before injection of the carrageenin. The results are shown in Table II (Higgs et.al., European Journal of Pharmacology 66, 81-86 (1980)).

Going from `Oc1ccnc(SCc2cccnc2)n1` [Example 2, 4-hydroxy-2-(pyridyl-3-methylthio)-pyrimidine] to `Nc1cc(N)nc(SCc2cccnc2)n1` [Example 4, 4,6-diamino-2-(pyridyl-3-methylthio)-pyrimidine succinate], the “Inhibition in % (carrageenin-induced oedema formation)” value falls from 45% to 30%.
